The numbers were not newly measured in patent US8754055B2, “Methods, compositions, and kits for collecting and detecting oligonucleotides” (The Invention Science Fund I, LLC, priority 2008, dated 2014), which cites them from elsewhere.

Where two headings read alike, the source gives them in different places.

The conditions of data set [1]: 40, 8, and 1.6 μg injections once daily over 35 days.
The conditions of data set [2]: in humans.
Data set [3] concerns the target T1, RNase A (Bos taurus, UniProt P61823).
T1 sequence (P61823 27-150): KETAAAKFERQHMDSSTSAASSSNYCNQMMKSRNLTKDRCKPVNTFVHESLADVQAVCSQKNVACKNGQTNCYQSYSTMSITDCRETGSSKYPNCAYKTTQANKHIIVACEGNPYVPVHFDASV
To be noted: RNAse A catalysis, read-out: inhibition constant (Ki).

For the compound `Nc1ccc(N=Nc2ccc(-c3ccc(O)cc3)cc2)c2ccc(S(=O)(=O)O)cc12` [8-amino-5-(4′-hydroxylbiphenyl-4-ylazo)naphthalene-2-sulfonate], the overt toxicity entry in data set [1] is on record as “without overt toxicity”. As for Etanercept, the half-life in data set [2] was 70 h. With oligo(vinylsulfonic acid), the figures for the Ki in data set [3] (0 mM sodium chloride (lower end of salt-dependent range)) and in data set [3] (100 mM sodium chloride (upper end of salt-dependent range)) were about 0.01 nM and about 120 nM, respectively.
